Measured values reported in ChEMBL document CHEMBL1201862, “PubChem BioAssay data set” (2004).
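Protocol summary: plate cells (96-well), add compound at 5 concentrations, incubate 48 h, interpolate endpoints linearly. The concentration for 50% growth inhibition is given as GI50.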 Activity calls are given as the source filed them. No stated cut-off is given here; in the data, active = GI50 up to about 1.1 µM and inactive = higher.

How the values were obtained:
Experiment in all cases: DTP human tumour cell line panel, 48 h
A498 = test system: A498
CAKI-1 = test system: CAKI-1
COLO 205 = test system: COLO 205
EKVX = test system: EKVX
HL-60 = test system: HL-60
KM12 = test system: KM12
Malme-3M = test system: Malme-3M
NCI-H23 = test system: NCI-H23
NCI/ADR-RES = test system: NCI/ADR-RES
OVCAR-3 = test system: OVCAR-3
OVCAR-5 = test system: OVCAR-5
RPMI-8226 = test system: RPMI-8226
SF-268 = test system: SF-268
SF-295 = test system: SF-295
SN12C = test system: SN12C
T47D = test system: T47D
U-251 = test system: U-251
UACC-62 = test system: UACC-62
SNB-75 = test system: SNB-75

| SMILES | GI50 (A498) | GI50 (CAKI-1) | GI50 (COLO 205) | GI50 (EKVX) | GI50 (HL-60) | GI50 (KM12) | GI50 (Malme-3M) | GI50 (NCI-H23) | GI50 (NCI/ADR-RES) | GI50 (OVCAR-3) | GI50 (OVCAR-5) | GI50 (RPMI-8226) | GI50 (SF-268) | GI50 (SF-295) | GI50 (SN12C) | GI50 (T47D) | GI50 (U-251) | GI50 (UACC-62) | GI50 (SNB-75) |
| --- | --- | --- | --- | --- | --- | --- | --- | --- | --- | --- | --- | --- | --- | --- | --- | --- | --- | --- | --- |
| COc1ccccc1CNC(=O)[C@H](Cc1ccc(O)cn1)NC(C)=O | > 100 µM (inactive) | > 100 µM (inactive) | > 100 µM (inactive) | > 100 µM (inactive) | > 100 µM (inactive) | > 100 µM (inactive) | > 100 µM (inactive) | > 100 µM (inactive) | > 100 µM (inactive) | > 100 µM (inactive) | > 100 µM (inactive) | > 100 µM (inactive) | > 100 µM (inactive) | > 100 µM (inactive) | > 100 µM (inactive) | > 100 µM (inactive) | > 100 µM (inactive) | > 100 µM (inactive) |  |
| CCCNC(=O)Cn1c(-c2ccccc2)cc2ccccc21 |  | 52 µM (inactive) | > 100 µM (inactive) | 30.6 µM (inactive) | > 100 µM (inactive) | > 100 µM (inactive) | 92 µM (inactive) | 48 µM (inactive) | 42.4 µM (inactive) | 91.8 µM (inactive) | > 100 µM (inactive) | > 100 µM (inactive) | 92 µM (inactive) | 88.7 µM (inactive) | > 100 µM (inactive) | 24.2 µM (inactive) | > 100 µM (inactive) | 26.4 µM (inactive) | 25.9 µM (inactive) |
| Cc1ccc2nc(-c3nccn3C)cc(C(=O)NC(C)CN(C)C)c2c1 (configuration not stated) | > 100 µM (inactive) | > 100 µM (inactive) | > 100 µM (inactive) | > 100 µM (inactive) | 10.1 µM (inactive) | > 100 µM (inactive) | > 100 µM (inactive) | > 100 µM (inactive) | > 100 µM (inactive) |  | > 100 µM (inactive) |  | > 100 µM (inactive) |  | > 100 µM (inactive) | > 100 µM (inactive) | > 100 µM (inactive) | > 100 µM (inactive) | > 100 µM (inactive) |
| Cc1cccc(C)c1Nc1nc(C)c(C(=O)CC(=O)C(=O)Nc2c(C(C)C)cccc2C(C)C)s1 |  | > 100 µM (inactive) | > 100 µM (inactive) | > 100 µM (inactive) | 24.7 µM (inactive) | > 100 µM (inactive) |  | > 100 µM (inactive) | 73.8 µM (inactive) | 72.6 µM (inactive) | > 100 µM (inactive) | 56.8 µM (inactive) | > 100 µM (inactive) | 58.5 µM (inactive) | > 100 µM (inactive) | > 100 µM (inactive) | > 100 µM (inactive) | > 100 µM (inactive) |  |
| O=c1oc2c/c(=C\c3ccccn3)c(=O)c3cccc1c3-2 |  | > 100 µM (inactive) | > 100 µM (inactive) | > 100 µM (inactive) | > 100 µM (inactive) | 50.4 µM (inactive) | 72.3 µM (inactive) | > 100 µM (inactive) | 52.7 µM (inactive) | 7.59 µM (inactive) | > 100 µM (inactive) | 28.6 µM (inactive) | 30.8 µM (inactive) | > 100 µM (inactive) | 95.5 µM (inactive) | 38.1 µM (inactive) |  | > 100 µM (inactive) |  |
| O=CC12C3CCC1C2C(=O)C3 (configuration not stated) |  | > 100 µM (inactive) | > 100 µM (inactive) | > 100 µM (inactive) |  | > 100 µM (inactive) | > 100 µM (inactive) | > 100 µM (inactive) | > 100 µM (inactive) | > 100 µM (inactive) | > 100 µM (inactive) | > 100 µM (inactive) | > 100 µM (inactive) | > 100 µM (inactive) | > 100 µM (inactive) |  | > 100 µM (inactive) | > 100 µM (inactive) | > 100 µM (inactive) |
| Oc1cccc(-c2cn3cc(C(F)(F)F)ccc3n2)c1 | 37.5 µM (inactive) | 47.9 µM (inactive) | 39.2 µM (inactive) | 17.5 µM (inactive) | 32.6 µM (inactive) | 28.6 µM (inactive) | 27.9 µM (inactive) | 42.7 µM (inactive) | 25.9 µM (inactive) | 19.5 µM (inactive) | 37.2 µM (inactive) |  | 38.8 µM (inactive) | 24.5 µM (inactive) | 47.9 µM (inactive) | 2.39 µM (inactive) | 50.6 µM (inactive) | 30.7 µM (inactive) |  |
| O=C1Nc2ccccc2C(=O)O/C(Cc2ccccc2)=N\c2ccccc21 |  | > 100 µM (inactive) | > 100 µM (inactive) | > 100 µM (inactive) | > 100 µM (inactive) | > 100 µM (inactive) |  | > 100 µM (inactive) | > 100 µM (inactive) | > 100 µM (inactive) | > 100 µM (inactive) | > 100 µM (inactive) | > 100 µM (inactive) | > 100 µM (inactive) | > 100 µM (inactive) | > 100 µM (inactive) | > 100 µM (inactive) | > 100 µM (inactive) | 25.9 µM (inactive) |
| O=C1CN(c2ccccc2)Cc2nc(Cl)ccc2N1 |  | > 100 µM (inactive) | > 100 µM (inactive) | > 100 µM (inactive) | > 100 µM (inactive) | > 100 µM (inactive) | 58.1 µM (inactive) |  | 94 µM (inactive) |  | > 100 µM (inactive) | > 100 µM (inactive) | > 100 µM (inactive) | > 100 µM (inactive) | > 100 µM (inactive) | > 100 µM (inactive) | > 100 µM (inactive) | 95.5 µM (inactive) | 40.4 µM (inactive) |
| O=C1CC(c2ccc(Cl)cc2)C2(C(=O)NC(=O)NC2=O)C(c2ccc(Cl)cc2)C1 (configuration not stated) |  | 35.2 µM (inactive) | 20.2 µM (inactive) | 47.4 µM (inactive) | 19.5 µM (inactive) | 36.4 µM (inactive) | 17.1 µM (inactive) | 34 µM (inactive) | 26.4 µM (inactive) | 24.9 µM (inactive) | 31.3 µM (inactive) | 10.3 µM (inactive) | 42.8 µM (inactive) | 28.8 µM (inactive) | 21.6 µM (inactive) | 17.9 µM (inactive) | 27.5 µM (inactive) | 40.5 µM (inactive) | 49.5 µM (inactive) |
| COc1ccc(OC)c([N+](=O)[O-])c1-c1nc2sc(C)c(C)n2c1/C=N/N=C(N)N | > 100 µM (inactive) | > 100 µM (inactive) | 29.9 µM (inactive) | > 100 µM (inactive) | 25.6 µM (inactive) | 20.9 µM (inactive) | 60.7 µM (inactive) | > 100 µM (inactive) | > 100 µM (inactive) | > 100 µM (inactive) | > 100 µM (inactive) | 32.4 µM (inactive) | 45.6 µM (inactive) | 84.1 µM (inactive) | > 100 µM (inactive) | 23.4 µM (inactive) | 49.7 µM (inactive) | 45.7 µM (inactive) |  |
| Cc1cc(N(C)c2ccccc2)nc(N(C)c2ccccc2)n1 | 64.9 µM (inactive) | > 100 µM (inactive) | 23.9 µM (inactive) | 36.1 µM (inactive) | 37.8 µM (inactive) | 18.1 µM (inactive) | 26.9 µM (inactive) | 36.7 µM (inactive) | 58.3 µM (inactive) | 33 µM (inactive) | 21.2 µM (inactive) | 28.8 µM (inactive) | 54 µM (inactive) | 20.2 µM (inactive) | 46.8 µM (inactive) |  | 30.7 µM (inactive) | 28.6 µM (inactive) | 41.1 µM (inactive) |
| N#C[C@H]1C(=O)C(c2nc3ccccc3[nH]2)S[C@H]1c1ccccc1 (some centres not stated) | 22.1 µM (inactive) | 38.6 µM (inactive) | 51.5 µM (inactive) | 28.9 µM (inactive) | 25.4 µM (inactive) | 44.2 µM (inactive) | 29.9 µM (inactive) | 27.5 µM (inactive) | 30.9 µM (inactive) | 31 µM (inactive) | 92.9 µM (inactive) | 25.5 µM (inactive) |  | 25.2 µM (inactive) | 20 µM (inactive) |  | 22.6 µM (inactive) | 15.3 µM (inactive) |  |
| [O-][S+](CC1(O)CCCCC1)c1ccccc1 (configuration not stated) |  | > 100 µM (inactive) | > 100 µM (inactive) | > 100 µM (inactive) | > 100 µM (inactive) | > 100 µM (inactive) | > 100 µM (inactive) | > 100 µM (inactive) | > 100 µM (inactive) |  | > 100 µM (inactive) | < 0.01 µM (active) | > 100 µM (inactive) | > 100 µM (inactive) | > 100 µM (inactive) | > 100 µM (inactive) | > 100 µM (inactive) | > 100 µM (inactive) | > 100 µM (inactive) |
| CCC1(CC)C(=O)N(C(=O)c2ccccc2)N(C(=O)c2ccc(Cl)cc2)C1=O |  | > 75 µM (inactive) | > 75 µM (inactive) | > 75 µM (inactive) | 22 µM (inactive) | > 75 µM (inactive) | > 75 µM (inactive) | > 75 µM (inactive) | > 75 µM (inactive) | > 75 µM (inactive) | > 75 µM (inactive) | 20 µM (inactive) | > 75 µM (inactive) | > 75 µM (inactive) | > 75 µM (inactive) | > 75 µM (inactive) | 59.3 µM (inactive) | > 75 µM (inactive) | > 75 µM (inactive) |
| CN(C)C(=S)/N=c1\ss/c(=N\C(=S)N(C)C)n1-c1ccc(Cl)c(Cl)c1 | > 100 µM (inactive) | > 100 µM (inactive) | > 100 µM (inactive) | > 100 µM (inactive) | > 100 µM (inactive) | > 100 µM (inactive) | > 100 µM (inactive) | > 100 µM (inactive) |  | > 100 µM (inactive) | > 100 µM (inactive) | > 100 µM (inactive) | > 100 µM (inactive) | > 100 µM (inactive) | > 100 µM (inactive) |  | > 100 µM (inactive) | 30.9 µM (inactive) | 27.1 µM (inactive) |
